From patent US20020156094A1, “Sulfonamide interleukin-1beta converting enzyme inhibitors” (Warner-Lambert Company, priority 1996, published 2002) come the findings set out here.

By Ki is commonly meant the equilibrium dissociation constant of an inhibitor or competing ligand from its target. The term IC50 denotes the concentration that inhibits the measured activity by half.

Holding throughout (assay type): biochemical
In assay [1] the target is T1, ICE (interleukin-1β converting enzyme, Caspase-1) (Homo sapiens, UniProt P29466).
T1 sequence (P29466 120-297 limits assumed): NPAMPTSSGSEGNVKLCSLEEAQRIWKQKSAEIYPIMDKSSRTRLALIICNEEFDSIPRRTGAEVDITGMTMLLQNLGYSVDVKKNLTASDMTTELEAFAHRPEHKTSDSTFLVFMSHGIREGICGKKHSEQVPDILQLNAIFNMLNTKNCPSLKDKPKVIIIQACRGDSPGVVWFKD
T1 sequence (P29466 317-404 limits assumed): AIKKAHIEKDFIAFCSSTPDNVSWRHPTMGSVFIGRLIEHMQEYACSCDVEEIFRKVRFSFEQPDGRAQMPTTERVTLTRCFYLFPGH
Put plainly: ICE Ki fluorescence assay (Ac-Tyr-Val-Ala-Asp-AMC hydrolysis). To be noted: ICE 0.24 nM, 15 μM Ac-Tyr-Val-Ala-Asp-AMC, reversible competitive model. The method, then:
Substrate hydrolysis is monitored for 300 seconds by observing the fluorescence of released AMC using excitation at 380 nm and emission at 460 nm. Mean rates of substrate hydrolysis are evaluated by linear-regression analysis of the fluorescence vs time traces. To evaluate Ki, plots of percent inhibition vs inhibitor concentration are fit by non-linear regression to a reversible, competitive model: [formula]
Where the competition factor (1+[S]/KM)=2.

Assay [2] has as its target T1, ICE (interleukin-1β converting enzyme, Caspase-1). As to the kind of experiment: ICE Colorimetric Dose-Response (IC50) Assay. To be noted: ICE approx. 24 nM, 60 min preincubation, 50 μM Ac-Tyr-Val-Ala-Asp-pNA, 25° C. As for the experimental part:
ICE Colorimetric Dose-Response (IC50) Assay
(§1) Diluted inhibitor stocks are prepared by two-fold serial dilution from a primary stock whose concentration is selected (based on screening results or on prior attempts at IC50 evaluation) to achieve approximately 95% inhibition in the most concentrated well. Aliquots of each dilution are transferred to a microtitre plate in triplicate.
(§2) ICE enzyme is diluted to approximately 24 nM in HGE buffer (100 mM HEPES pH 7.5, 0.5 mM EDTA, 20% glycerol, 0.1% Bovine Serum Albumin (BSA)), and activated by adding dithiothreitol (DTT) to a final concentration of 5 mM. The activated enzyme is then aliquoted into wells containing inhibitor or vehicle, and the plate is preincubated for 60 minutes at ambient temperature. Substrate (Ac-Tyr-Val-Ala-Asp-pNA) is added to each well to a final concentration of 50 μM, and plates are placed in the microtitre plate-reader thermostated to 25° C. Beginning 5 minutes after addition of substrate, absorbance (405 nm) of wells is monitored for 1 hour, and activity is calculated as the mean rate of change in absorbance during this interval.

The target in the next assay is T2, Ich-2 (Caspase-4) (Homo sapiens, UniProt P49662).
T2 sequence (P49662 81-270 limits assumed): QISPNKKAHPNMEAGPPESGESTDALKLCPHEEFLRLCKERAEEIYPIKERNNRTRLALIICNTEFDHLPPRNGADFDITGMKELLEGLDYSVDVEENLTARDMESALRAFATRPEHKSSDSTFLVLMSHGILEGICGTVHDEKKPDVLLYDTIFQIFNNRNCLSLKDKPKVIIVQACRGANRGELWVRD
T2 sequence (P49662 290-377 limits assumed): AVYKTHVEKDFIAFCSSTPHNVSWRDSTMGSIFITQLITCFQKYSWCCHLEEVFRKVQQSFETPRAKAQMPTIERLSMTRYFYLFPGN
As to the kind of experiment: Ich-2 (Caspase-4) Colorimetric Dose-Response (IC50) Assay. The note with it: enzyme 64 nM, substrate Ac-Leu-Glu-Val-Asp-pNA. The method, then:
as §1, §2
Ich-2 (Caspase-4) Colorimetric Dose-Response (IC50) Assay
Inhibition of Ich-2 enzyme is assayed as described above for ICE, except that enzyme is used at 64 nM, and 60 µM of the Ich-2-specific substrate Ac-Leu-Glu-Val-Asp-pNA is used instead of the ICE substrate Ac-Tyr-Val-Ala-Asp-pNA.

“And” between values parts separate entries of the source, which are not always exact repeats. Identical values can stand only once.

With `CC(=O)NC(C(=O)NC(CC(=O)O)C(=O)CNS(=O)(=O)C[C@]12CCC(CC1=O)C2(C)C)C(C)C` (stereo partly drawn) [Example 4a, 3-(2-Acetylamino-3-methyl-butyrylamino)-5-(7,7-dimethyl-2-oxo-bicyclo [2.2.1]hept-1-(S)-ylmethanesulfonylamino)-4-oxo-pentanoic acid], the Ki in assay [1] turned out to be 0.27 µM. This compound also returned an IC50 in assay [2] of 7.6 µM.
In assay [1], `O=C(O)CC(NC(=O)OCc1ccccc1)C(=O)CNS(=O)(=O)CC1CCc2ccccc21` (stereo not shown) [Example 2j, 3-Benzyloxycarbonylamino-5-(indan-1-ylmethanesulfonylamino)-4-oxo-pentanoic acid] registered an inhibition constant (Ki) of 65 µM. The half-inhibitory concentration (IC50) was determined as 194 µM in assay [2] and 159 µM at Ich-2 (Caspase-4).
For `CC(=O)NC(Cc1ccc(O)cc1)C(=O)NC(CCC(=O)O)C(=O)NC(C(=O)NC(CC(=O)O)C(=O)CNS(=O)(=O)CC12CCC(CC1=O)C2(C)C)C(C)C` (stereo not shown) [Example 4e, 3-(2-{2-[2-Acetylamino-3-(4-hydroxy-phenyl)-propionylamino]-4-carboxy-butyrylamino}-3-methyl-butyrylamino)-5-(7,7-dimethyl-2-oxo-bicyclo[2.2.1]hept-1-ylmethanesulfonylamino)-4-oxo-pentanoic acid], in that order: 0.00011 µM, 0.002 µM and 0.7 µM.
For `CC(NC(=O)C(NC(=O)OCc1ccccc1)C(C)C)C(=O)NC(CC(=O)O)C(=O)CNS(=O)(=O)CC12CCC(CC1=O)C2(C)C` (stereo not shown) [Example 4c, 3-[2-(2-Benzyloxycarbonylamino-3-methyl-butyrylamino)-propionylamino]-5-(7,7-dimethyl-2-oxo-bicyclo[2.2.1]hept-1-ylmethanesulfonylamino)-4-oxo-pentanoic acid], in that order: 0.001 µM, 0.015 µM and 8.5 µM.
On to `O=C(O)C[C@H](NC(=O)CN1CCc2ccccc2C1=O)C(=O)CNS(=O)(=O)c1ccccc1` [Example 5a, 3-(1,2,3,4,-Tetrahydro-1-oxo-isoquinoline-2-yl)acetamino-5-benzenesulfonyl amino-4-oxo-pentanoic acid], for which affinity in assay [1] was put at a Ki of 105 µM. Besides, the IC50 in assay [2] is 586 µM.
For `CS(=O)(=O)NCC(=O)C(CC(=O)O)NC(=O)OCc1ccccc1` (stereo not shown) [Example 2e, 3-Benzyloxycarbonylamino-5-methanesulfonylamino-4-oxo-pentanoic acid], in that order: 735 µM and 1830 µM.
`O=C(O)C[C@H](NC(=O)CN1CCc2ccccc2C1=O)C(=O)CNS(=O)(=O)CC12CCC(CC1)C2` [Example 5b, (S)-5-(Bicyclo[2.2.1]hept-1-ylmethanesulfonylamino)-4-oxo-3-[2-(1-oxo-3,4-dihydro-1H-isoquinolin-2-yl)-acetylamino]-pentanoic acid]: the inhibition constant Ki in assay [1] was found to be 20 µM. Also, the half-maximal inhibitory concentration (IC50) in assay [2] worked out at 165 µM; on Ich-2 (Caspase-4), 252 µM.
`CC(=O)NC(Cc1ccc(O)cc1)C(=O)NC(CCC(=O)O)C(=O)NC(C(=O)NC(CC(=O)O)C(=O)CNS(=O)(=O)CCc1ccccc1)C(C)C` (stereo not shown) [Example 3d] gave a Ki in assay [1] of 0.0078 µM. Besides, the results for the concentration for half-maximal inhibition (IC50) (in assay [2]; on Ich-2 (Caspase-4)) were 0.003 µM and 0.9 µM, respectively.
Regarding `O=C(O)CC(NC(=O)OCc1ccccc1)C(=O)CNS(=O)(=O)Cc1ccccc1` (stereo not shown) [Example 2c, 3-Benzyloxycarbonylamino-4-oxo-5-phenylmethanesulfonyl-amino-pentanoic acid], in assay [1], the Ki is 18 µM and 14 µM. In assay [2], this compound returned a 50% inhibitory concentration (IC50) of 168 µM.
On to `CC(C)C(NC(=O)C(CCC(=O)O)NC(=O)CCc1ccccc1)C(=O)NC(CC(=O)O)C(=O)CNS(=O)(=O)CC12CCC(CC1=O)C2(C)C` (stereo not shown) [Example 4d], for which the affinity in assay [1] corresponds to a Ki of 0.0016 µM. In addition, the figures for the IC50 (in assay [2]; against Ich-2 (Caspase-4)) were 0.003 µM and 1.6 µM, respectively.
For `O=C(O)CC(NC(=O)OCc1ccccc1)C(=O)CNS(=O)(=O)c1cccc2ccccc12` (stereo not shown) [Example 2f, 3-Benzyloxycarbonylamino-5-(naphthalene-1-sulfonylamino)-4-oxo-pentanoic acid], in that order: 22 µM, 174 µM and 1010 µM.
`O=C(O)CC(NC(=O)OCc1ccccc1)C(=O)CNS(=O)(=O)CCC1CCCCC1` (stereo not shown) [Example 2g, 3-Benzyloxycarbonylamino-5-(2-cyclohexyl-ethanesulfonylamino)-4-oxo-pentanoic acid] had an inhibition constant (Ki) in assay [1] of 33 µM. For the same compound, the 50% inhibitory concentration (IC50) in assay [2] is 136 µM; at Ich-2 (Caspase-4) it was 314 µM.
On the same counts, the results for `CC1(C)C2CC[C@]1(CS(=O)(=O)NCC(=O)C(CC(=O)O)NC(=O)OCc1ccccc1)C(=O)C2` (stereo partly drawn) [Example 2i, 3-Benzyloxycarbonylamino-5-(7,7-dimethyl-2-oxo-bicyclo[2.2.1]hept-1-(R)-ylmethanesulfonylamino)-4-oxo-pentanoic acid] are 30.1 µM, 25 µM and 59 µM.
Take `CC(C)C(NC(=O)C(CCC(=O)O)NC(=O)CCc1ccccc1)C(=O)NC(CC(=O)O)C(=O)CNS(=O)(=O)CCc1ccccc1` (stereo not shown) [Example 3c, 3-{2-[4-Carboxy-2-(3-phenyl-propionylamino)-butyrylamino]-3-methyl-butyrylamino}-4-oxo-5-(2-phenyl-ethanesulfonylamino)-pentanoic acid]: the Ki in assay [1] was 0.0051 µM. In addition, the results for the IC50 (in assay [2]; against Ich-2 (Caspase-4)) were 0.009 µM and 3.4 µM, respectively.
For `CC(C)C(NC(=O)C(CCC(=O)O)NC(=O)OCc1ccccc1)C(=O)NC(CC(=O)O)C(=O)CNS(=O)(=O)CC12CCC(CC1=O)C2(C)C` (stereo not shown) [Example 4f, 3-[2-(2-Benzyloxycarbonylamino-4-carboxy-butyrylamino)-3-methyl-butyrylamino]-5-(7,7-dimethyl-2-oxo-bicyclo[2.2.1]hept-1-ylmethanesulfonylamino)-4-oxo-pentanoic acid], in that order: 0.00061 µM, 0.002 µM and 3.2 µM.
Regarding `O=C(O)C[C@H](NC(=O)CN1CCc2ccccc2C1=O)C(=O)CNS(=O)(=O)CCc1ccccc1` [Example 5c, (S)-4-Oxo-3-[2-(1-oxo-3,4-dihydro-1H-isoquinolin-2-yl)-acetylamino]-5-(2-phenyl-ethanesulfonylamino)-pentanoic acid], in assay [1], the affinity, expressed as Ki, was 45 µM. In assay [2], this compound had an IC50 of 371 µM.
On the same counts, the results for `O=C(O)CC(NC(=O)OCc1ccccc1)C(=O)CNS(=O)(=O)CCc1ccccc1` (stereo not shown) [Example 2a, 3-Benzyloxycarbonylamino-4-oxo-5-(2-phenylethane-sulfonylamino)-pentanoic acid] are 11 µM and 73 µM.
`O=C(O)CC(NC(=O)OCc1ccccc1)C(=O)CNS(=O)(=O)CC1(F)c2ccccc2-c2ccccc21` (stereo not shown) [Example 2k, 3-Benzyloxycarbonylamino-5-(9-fluoro-9H-fluoren-9-ylmethanesulfonylamino)-4-oxo-pentanoic acid] displayed an inhibition constant Ki in assay [1] of 22 µM.
`CC1(C)C2CCC1(CS(=O)(=O)NCC(=O)[C@@H](CC(=O)O)NC(=O)OCc1ccccc1)CC2` [Example 2m, (R)-3-Benzyloxycarbonylamino-5-(7,7-dimethyl-bicyclo[2.2.1]hept-1-ylmethane-sulfonylamino)-4-oxo-pentanoic acid] returned a Ki in assay [1] of 2.8 µM. In addition, the IC50 in assay [2] is 35.3 µM.
On the same counts, the results for `O=C(O)CC(NC(=O)OCc1ccccc1)C(=O)CNS(=O)(=O)c1ccccc1` (stereo not shown) [Example 2d, 5-Benzenesulfonylamino-3-benzyloxycarbonylamino-4-oxo-pentanoic acid] are 37 µM and 291 µM.
For `O=C(O)CC(NC(=O)CN1CCc2ccccc2C1=O)C(=O)CNS(=O)(=O)Cc1ccccc1` (stereo not shown) [Example 5d, 4-Oxo-3-[2-(1-oxo-3,4-dihydro-1H-isoquinolin-2-yl)-acetylamino]-5-phenylmethanesulfonylamino-pentanoic acid], in that order: 27 µM and 234 µM.
